Measured values taken from patent US20090054501A1, “AZOLE COMPOUNDS USED AS TUBERCULOSTATIC AND LEISHMANICIDE AGENTS” (priority 2005, published 2009).
≈ marks a conversion by molar mass, not a printed value. Where “and” joins values, the source holds several entries; their conditions need not be identical. Identical values can stand only once. Like-named read-outs stand apart in the source and are kept apart here.

Tests used:
[1] = test system: Mycobacterium tuberculosis H37Rv (ATCC-27294); test: MIC by MABA (Microplate Alamar Blue Assay), in vitro antimicrobial activity; type: cell-based; conditions: for Inhibition (%): Table 2, M. tuberculosis H37Rv (ATCC 27294), concentration not given
[2] = test system: promastigote forms of Leishmania amazonensis; test: Leishmanicide evaluation in vitro, live parasites counted by fluorescence; type: cell-based; conditions: L. amazonensis promastigotes, read-out: Percentage of parasitic inhibition; for inhibition at 160 µg/mL: concentration 160 μg/mL; for inhibition at 10 µg/mL: concentration 10 μg/mL
Procedure: The evaluation of the leishmanicide activity of the type I and II 1,2,3-triazole derivatives was made through in vitro essays against promastigote forms of Leishmania amazonensis, and after the incubation with compounds, live parasites are counted by fluorescence, thus obtaining as a result, the percentage of inhibition of the compounds evaluated.
Essays were performed in triplicate using pentamidine as a positive pattern with a 160 μg/mL concentration.
The evaluation of the leishmanicide activity of type I (Formula XII) and II (Formula XIII) imidazole derivatives was performed through in vitro essays against promastigote forms of Leishmania amazonensis, and after the incubation with compounds, live parasites are counted by fluorescence, thus obtaining as a result the inhibition percentage of the evaluated compounds.
Essays were performed in triplicate using pentamidine as a positive pattern with a 160 μg/mL concentration, determining which compounds evaluated inhibited the parasite in lower concentrations and the percentage higher than the pattern. Table 6 lists the results obtained in the leishmanicide evaluation of derivatives 140a 148a 146a, 149a.

[3] = 1,2,3-triazole derivatives types I-III and rifampicin comparison pattern, M. tuberculosis H37Rv, MABA
[4] = Table 2, type I and II 1,2,3-triazoles, M. tuberculosis H37Rv (ATCC 27294), MABA
[5] = Mycobacterium tuberculosis, Table 2, type I and II 1,2,3-triazoles, M. tuberculosis H37Rv (ATCC 27294), MABA, read-out: MIC
[6] = Mycobacterium tuberculosis, 1,2,3-triazole derivatives types I-III and rifampicin comparison pattern, M. tuberculosis H37Rv, MABA, read-out: MIC
[7] = Mycobacterium tuberculosis, Table 4, type I (Formula XII) imidazole derivatives, read-out: MIC
[8] = Mycobacterium tuberculosis, Table 5, type II (Formula XIII) imidazole derivatives, read-out: MIC

SMILES: O=Cc1cn(-c2ccc(Cl)cc2)nn1 [114a, 4-carboxaldehyde-1-(4-chlorophenyl)-1H-1,2,3-triazole]
- MIC [1, 3]: 5 mg/L and 5.0 mg/L
- MIC (μg/mL) [1, 4]: 5,0 μg/mL

SMILES: O=Cc1cn(-c2ccc(Br)cc2)nn1 [114b, 4-carboxaldehyde-1-(4-bromophenyl)-1H-1,2,3-triazole]
- MIC [1, 3]: 5.0 mg/L (≈ 19.8 µM)
- MIC (μg/mL) [1, 4]: 5,0 μg/mL

SMILES: Cc1ccc(-n2cc(C=O)nn2)cc1 [114c, 4-carboxaldehyde-1-(4-methylphenyl)-1H-1,2,3-triazole]
- MIC [1, 3]: 2.5 mg/L (≈ 13.4 µM)
- MIC (μg/mL) [1, 4]: 2,5 μg/mL

SMILES: COc1ccc(-n2cc(C=O)nn2)cc1 [114d, 4-carboxaldehyde-1-(4-methoxyphenyl)-1H-1,2,3-triazole]
- MIC (μg/mL) [1, 4]: 10,0 μg/mL

SMILES: COc1ccc(OC)c(-n2cc(C=O)nn2)c1 [114e, 4-carboxaldehyde-1-(2,5-dimethoxyphenyl)-1H-1,2,3-triazole]
- MIC (μg/mL) [1, 4]: 80,0 μg/mL

SMILES: O=Cc1cn(-c2cccc(Cl)c2)nn1 [114f, 4-carboxaldehyde-1-(3-chlorophenyl)-1H-1,2,3-triazole]
- MIC [1, 5]: 10 mg/L (≈ 48.2 µM)
- Inhibition (%) [1]: 100%
- inhibition at 320 µg/mL ([2]; concentration 320 μg/mL): 72%

SMILES: O=Cc1cn(-c2cc(Cl)cc(Cl)c2)nn1 [114g, 4-carboxaldehyde-1-(3,5-dichlorophenyl)-1H-1,2,3-triazole]
- MIC [1, 3]: 2.5 mg/L (≈ 10.3 µM)
- MIC (μg/mL) [1, 4]: 2,5 μg/mL

SMILES: N#Cc1cccc(-n2cc(C=O)nn2)c1 [114h, 4-carboxaldehyde-1-(3-cyanophenyl)-1H-1,2,3-triazole]
- MIC (μg/mL) [1, 4]: 20,0 μg/mL

SMILES: N#Cc1ccc(-n2cc(C=O)nn2)cc1 [114i, 4-carboxaldehyde-1-(4-cyanophenyl)-1H-1,2,3-triazole]
- MIC [1, 3]: 5.0 mg/L (≈ 25.2 µM)
- MIC (μg/mL) [1, 4]: 5,0 μg/mL

SMILES: O=Cc1cn(-c2ccc([N+](=O)[O-])cc2)nn1 [114j, 4-carboxaldehyde-1-(4-nitrophenyl)-1H-1,2,3-triazole]
- MIC [1, 6]: 20 mg/L (≈ 91.7 µM)
- inhibition at 160 µg/mL [2]: 11%

SMILES: COc1ccccc1-n1cc(C=O)nn1 [114l, 4-carboxaldehyde-1-(2-methoxyphenyl)-1H-1,2,3-triazole]
- MIC (μg/mL) [1, 4]: 40,0 μg/mL

SMILES: COc1ccc(-n2cc(C=O)nn2)cc1OC [114m, 4-carboxaldehyde 1-(3,4-dimethoxyphenyl)-1H-1,2,3-triazole]
- MIC (μg/mL) [1, 4]: 80,0 μg/mL

SMILES: FC(F)c1cn(-c2ccc(Cl)cc2)nn1 [121a, 1-(4-chlorophenyl)-4-difluoromethyl-1H-1,2,3-triazole]
- MIC ([1]; Mycobacterium tuberculosis): 40 mg/L (≈ 174 µM)
- MIC (μg/mL) [1, 4]: 40,0 μg/mL

SMILES: FC(F)c1cn(-c2ccc(Br)cc2)nn1 [121b, 1-(4-bromophenyl)-4-difluoromethyl-1H-1,2,3-triazole]
- MIC [1, 5]: 20 mg/L (≈ 73 µM)
- Inhibition (%) [1]: 75%

SMILES: Cc1ccc(-n2cc(C(F)F)nn2)cc1 [121c, 1-(4-methylphenyl)-4-difluoromethyl-1H-1,2,3-triazole]
- MIC [1, 5]: 40 mg/L (≈ 191 µM)
- Inhibition (%) [1]: 87%

SMILES: COc1ccc(-n2cc(C(F)F)nn2)cc1 [121d, 1-(4-methoxyphenyl)-4-difluoromethyl-1H-1,2,3-triazole]
- MIC [1, 5]: 10 mg/L (≈ 44.4 µM)
- Inhibition (%) [1]: 93%

SMILES: COc1ccc(OC)c(-n2cc(C(F)F)nn2)c1 [121e, 1-(2,5-dimethoxyphenyl)-4-difluoromethyl-1H-1,2,3-triazole]
- MIC [1, 5]: 80 mg/L (≈ 313 µM)
- Inhibition (%) [1]: 74%

SMILES: FC(F)c1cn(-c2cccc(Cl)c2)nn1 [121f, 1-(3-chlorophenyl)-4-difluoromethyl-1H-1,2,3-triazole]
- MIC [1, 5]: 80 mg/L (≈ 348 µM)
- Inhibition (%) [1]: 54%
- inhibition at 10 µg/mL [2]: 93%

SMILES: FC(F)c1cn(-c2cc(Cl)cc(Cl)c2)nn1 [121g, 1-(3,5-dichlorophenyl)-4-difluoromethyl-1H-1,2,3-triazole]
- MIC [1, 5]: 80 mg/L (≈ 303 µM)
- Inhibition (%) [1]: 55%

SMILES: N#Cc1cccc(-n2cc(C(F)F)nn2)c1 [121h, 1-(3-cyanophenyl)-4-difluoromethyl-1H-1,2,3-triazole]
- MIC [1, 5]: 80 mg/L (≈ 363 µM)

SMILES: N#Cc1ccc(-n2cc(C(F)F)nn2)cc1 [121i, 1-(4-cyanophenyl)-4-difluoromethyl-1H-1,2,3-triazole]
- MIC [1, 5]: 20 mg/L (≈ 90.8 µM)

SMILES: O=[N+]([O-])c1ccc(-n2cc(C(F)F)nn2)cc1 [121j, 1-(4-nitrophenyl)-4-difluoromethyl-1H-1,2,3-triazole]
- MIC [1, 6]: 40 mg/L (≈ 167 µM)

SMILES: COc1ccc(-n2cc(C(F)F)nn2)cc1OC [121m, 1-(3,4-dimethoxyphenyl)-4-difluoromethyl-1H-1,2,3-triazole]
- MIC [1, 5]: 80 mg/L (≈ 313 µM)
- Inhibition (%) [1]: 66%

SMILES: CCOC(=O)c1ncn(-c2ccc(C)cc2)c1N(C(=O)c1ccc(F)cc1)C(=O)c1ccc(F)cc1 [140a]
- inhibition at 10 µg/mL [2]: 79%

SMILES: CCOC(=O)c1ncn(-c2ccc(C#N)cc2)c1N(C(=O)c1ccc(F)cc1)C(=O)c1ccc(F)cc1 [140b]
- MIC [1, 7]: 1.2 mg/L (≈ 2.4 µM)

SMILES: CCOC(=O)c1ncn(-c2ccc(C)cc2)c1N(C(=O)c1ccccc1F)C(=O)c1ccccc1F [146a]
- MIC [1, 7]: 3 mg/L (≈ 6.13 µM)
- inhibition at 80 µg/mL ([2]; concentration 80 μg/mL): 75%

SMILES: CCOC(=O)c1ncn(-c2ccc(Cl)cc2)c1N(C(=O)c1ccccc1F)C(=O)c1ccccc1F [146c]
- MIC [1, 7]: 3 mg/L (≈ 5.88 µM)

SMILES: CCOC(=O)c1ncn(-c2c(F)cccc2F)c1N(C(=O)c1ccccc1F)C(=O)c1ccccc1F [146e]
- MIC [1, 7]: 3 mg/L (≈ 5.87 µM)

SMILES: CCOC(=O)c1ncn(-c2ccc(C)cc2)c1NC(=O)c1ccc(F)cc1 [148a, Ester ethyl 5-[(4-fluorobenzoic)amino]-1-(4-methylphenyl)-1H-imidazole-4-carboxylate]
- MIC [1, 8]: 3 mg/L (≈ 8.17 µM)
- inhibition at 10 µg/mL [2]: 90%

SMILES: CCOC(=O)c1ncn(-c2ccc(C)cc2)c1NC(=O)c1ccccc1F [149a, Ester ethyl 5-[(2-fluorobenzoic)amino]-1-(4-methylphenyl)-1H-imidazole-4-carboxylate]
- inhibition at 160 µg/mL [2]: 93%

SMILES: CCOC(=O)c1ncn(-c2ccc(C#N)cc2)c1NC(=O)c1ccccc1F [149b, Ester ethyl 1-(4-cyanophenyl)-5-[(2-fluorobenzoic)amino]-1H-imidazole-4-carboxylate]
- MIC [1, 8]: 3 mg/L (≈ 7.93 µM)

SMILES: CCOC(=O)c1ncn(-c2ccc(Cl)cc2)c1NC(=O)c1ccccc1F [149c, Ester ethyl 1-(4-chlorophenyl)-5-[(2-fluorobenzoic)amino]-1H-imidazole-4-carboxylate]
- MIC [1, 8]: 3 mg/L (≈ 7.74 µM)

SMILES: N=C(N)c1ccc(OCCCCCOc2ccc(C(=N)N)cc2)cc1 [Pentamidine, pentamidine, reference compound]
- inhibition at 160 µg/mL [2]: 53%

SMILES: CO[C@H]1/C=C/O[C@@]2(C)Oc3c(C)c(O)c4c(O)c(c(/C=N/N5CCN(C)CC5)c(O)c4c3C2=O)NC(=O)/C(C)=C\C=C\[C@H](C)[C@H](O)[C@@H](C)[C@@H](O)[C@@H](C)[C@H](OC(C)=O)[C@@H]1C [Rifampicin, rifampicin, reference compound]
- MIC [1, 3]: 1.0 mg/L (≈ 1.22 µM)
- MIC ([1]; Mycobacterium tuberculosis, imidazole derivatives and rifampicin comparison pattern, M. tuberculosis H37Rv, MABA, read-out: MIC): 1 mg/L (≈ 1.22 µM)
- MIC (μg/mL) [1, 4]: 1,0 μg/mL

SMILES: Clc1ccc(/N=C/c2cn(-c3ccc(Cl)cc3)nn2)cc1 [compound 119, (E)-4-chloride-N-((1-(4-chlorophenyl)-1H-1,2,3-triazole-4-il)methylene) benzenamine]
- MIC [1, 3]: 40 mg/L (≈ 126 µM)

SMILES: Brc1ccc(/N=C/c2cn(-c3ccc(Br)cc3)nn2)cc1 [compound 120, (E)-4-bromo-N-((1-(4-bromophenyl)-1H-1,2,3-triazole-4-il)methylene) benzenamine]
- MIC [1, 3]: 20 mg/L (≈ 49.3 µM)
